{
  "source": "patent US5482954A",
  "about": "“Signal transduction inhibitor triazole and diazole compounds” (priority 1994, dated 1996)",
  "key": {"[1]": {"test_system": "MDA-231 human breast cancer cells", "experiment": "AMF-stimulated cell motility", "type": "cell-based", "settings": "overnight exposure; data not shown"}, "[2]": {"test_system": "A2058 human melanoma cells", "experiment": "AMF-stimulated cell motility", "type": "cell-based", "protocol": "(§1) The cell motility assay has been described. See, Stracke et al., Biochem. Biophys. Res. Comm., 146:339-345 (1987). Cells from the A2058 human melanoma line which was maintained in subconfluent culture were harvested with trypsin-EDTA, and were allowed to recover for 1 hr at room temperature. Cells from the 5R H-ras transformed (diploid) rat embryo fibroblast line were harvested with 2 mM EDTA in PBS without divalent cations. Cells were resuspended in serum-free media containing 0.1% BSA. This DMEM/0.1% BSA was used as the control for all subsequent assays. The assays were performed in triplicate using a 48-well chemotaxis chamber with 8μ Nucleopore, type IV collagen-coated filters. The chambers were incubated at 37° C. for 4 hr, stained and placed onto glass slides with the original cell side up so that the cell pellet could be wiped from the surface. Cells that had migrated through the pores were trapped between glass and membrane and could be quantitated by laser densitometry.\n(§2) Compound 1 was preincubated with the cells for various periods of time, added at the start of the assay, or added later. Additionally, compound 1 remained present during the motility assay. The cells were assayed for their motile response to AMF. AMF stimulates random and directed locomotion of 5R ras-transfected rat embryo fibroblasts and A2058 human melanoma cells. […] Cell viability determined by trypan blue exclusion averaged greater than 96%. Cells exposed to various concentrations of compound 1 were tested for their response to AMF vs. control. Percent stimulated motility (in densitometer units) is defined as: […]\n(§3) (AMF stimulated-control)Compound 1 /(AMF stimulated-control)untreated"}, "[3]": {"test_system": "5R ras-transfected rat embryo fibroblasts", "experiment": "AMF-stimulated cell motility", "type": "cell-based", "protocol": "as §1, §2, §3"}, "[4]": {"test_system": "CHOm5 cells", "experiment": "Carbachol-stimulated 45Ca2+ influx", "type": "cell-based, Chinese hamster", "design": "% Inhibition of 45Ca2+ Influx into CHOm5 Cells: concentration or dose not given beside the values", "protocol": "Calcium influx was determined using two methods. The first method involved the use of ^45 Ca^2+, while the second method utilized a fluorescent intracellular calcium chelator, Fura-2. The method using Fura-2 is semi-quantitative and is preferred for kinetic analysis and screening whereas the ^45 Ca^2+ method is quantitative.\nCHOm5 cells in monolayer culture were washed free of serum-containing media and incubated with either carbachol or the calcium ionophore A23187 (from Molecular Probes, Eugene, Oreg., USA) in the presence of ^45 Ca^2+ and defined buffer (E2 medium with 0.1 mM MgCl2 and 1.0 mM CaCl2). After incubation for 5 min, the radioactive buffer was rapidly and repeatedly washed off with media containing LaCl3, a competitor of calcium efflux. The cell monolayer was solubilized and the calcium uptake was determined by scintillation counting.\nStimulated uptake of radiolabelled calcium was measured as described above. The abbreviations CTL and CC are control and carbachol-stimulated calcium influx values. respectively."}, "[5]": {"test_system": "L-type voltage gated calcium channels", "settings": "Hupe, et al.; cited from earlier work"}, "[6]": {"settings": "overnight preincubation, AMF stimulation"}},
  "data": [
    {"smiles": "NC(=O)c1nnn(Cc2cc(Cl)c(C(=O)c3ccc(Cl)cc3)c(Cl)c2)c1N", "note": "[Compound 1]", "values": [
      {"measurement": "motile response to AMF", "setting": "[1]", "result": "inhibited"},
      {"measurement": "inhibition of AMF-stimulated tumor cell motility", "setting": "[2]; 0.03-10 μg/ml", "result": "inhibited AMF-stimulated tumor cell motility in a dose dependent manner"},
      {"measurement": "inhibition of motility, combination of 1 and PT vs either alone", "setting": "[2]; 1 (1 μg/ml) + PT (0.1 μg/ml), data not shown, cell line not stated", "result": "did not result in greater inhibition of motility than either drug alone"},
      {"measurement": "decrease in stimulated motility", "setting": "[2]; [6]", "result": "up to 55%"},
      {"measurement": "inhibition of motility", "setting": "[2]; same dose as PI assay (1.0 μg/mL)", "result": 45, "unit": "%"},
      {"measurement": "inhibition of AMF-stimulated tumor cell motility", "setting": "[3]; 0.03-10 μg/ml", "result": "inhibited AMF-stimulated tumor cell motility in a dose dependent manner"},
      {"measurement": "decrease in stimulated motility", "setting": "[3]; [6]", "result": "up to 55%"},
      {"measurement": "IC50", "setting": "[4]; Cricetulus griseus, FIG. 12, carbachol", "result": "935 ± 18", "unit": "nM"},
      {"measurement": "% Inhibition of 45Ca2+ Influx into CHOm5 Cells", "setting": "[4]; Table I, carbachol-stimulated", "result": 74, "unit": "%"},
      {"measurement": "inhibition of L-type voltage gated calcium channels", "setting": "[5]", "result": "inhibit"}
    ]}
  ]
}
